Measurements as given in patent EP3511005A1, “COMPOUNDS FOR USE IN TREATING HUTCHINSON-GILFORD PROGERIA SYNDROME” (Technische Universität München, priority 2018, dated 2019).
Values joined by “and” are separate entries in the source; they are usually repeats but may differ in a detail not shown here. Identical values can stand only once.

What was measured:
[1] = tested on: mouse fibroblasts from a progerin mouse model; test: Autophagy measurement in mouse fibroblasts (monodansylcadaverine staining); details: 3 µM
Description: First, control and HGPS fibroblasts were harvested in the above mentioned conditions and, following trypsinization, the number of cells was counted with a CASY® Cell Counter (Roche). Afterwards, fibroblasts from each condition were seeded in triplicate in a 96 well plate with 32.000 cells/well in 100 µl of culture media with the appropriate drug concentration, and the plate was incubated at 37 °C for 8 h. After centrifuging the 96 well plate at 1200 rpm for 5 min, the culture media was aspirated from each well and 100 µl of staining solution was added. The staining solution was prepared by diluting Cell-Based Monodansylcadaverine 1:1000 in Cell Based Assay Buffer. The assay buffer was prepared by dissolving a Cell-Based Assay Buffer Tablet in 100 ml of distilled water. […] Lastly, after removing the supernatant, 100 µl of Cell-Based Assay Buffer was added to each well and the autophagic vacuole staining intensity was immediately detected in a FLUOstar Omega Microplate Reader (Omega BMG Labtech) using an excitation wavelength of 355 nm and an emission wavelength of 520 nm.

[2] = tested on: control and progerin mouse cells; test: Cell growth (proliferation) of mouse fibroblasts; assay type: cell-based; details: 3 µM
Description: First, control and HGPS fibroblasts were cultured at 37 °C and 5% CO2 in culture media without drug. […] Then, each type of fibroblasts was seeded in triplicate with 150.000 cells/dish at the four different conditions. After 4 days and 9 days, the number of cells harvested in each condition was counted, also using a CASY® Cell Counter (Roche). The cumulative population doubling was determined using equation 5. Cumulative Population Doubling = 3,32 × log((cells harvested)/(cells seeded)) [formula]

HGPS fibroblasts [3] = test: Intracellular ATP measurement in HGPS fibroblasts; assay type: cell-based, human; details: 0.25-1 µM, 4 or 9 days
Description: This assay relies in the properties of a proprietary thermostable luciferase which generates a stable luminescent signal that is proportional to the amount of ATP in the cells by catalyzing the mono-oxygenation of luciferin in the presence of Mg^2+, ATP and molecular oxygen.
This reagent is obtained by transferring 10 ml of CellTiter-Glo® Buffer into an amber bottle containing CellTiter-Glo® Substrate and then mixing it gently by vortexing. The plate was then mixed for 2 min in an orbital shaker to induce cell lysis and following that, it was incubated at room temperature for 10 min to stabilize the luminescent signal. Finally, luminescence was recorded in a FLUOstar Omega Microplate Reader (Omega BMG Labtech). Considering that the ATP level in mock-treated control fibroblasts is 100%, the ATP levels relative to mock-treated control fibroblasts were calculated for each condition.
Culture media without cells was used as a blank negative control to assure there is no interference with the luciferase reaction.

HGPS fibroblasts [4] = test: Autophagy measurement in HGPS fibroblasts; assay type: cell-based, human; details: 0.25-1 µM, 4 or 9 days
Description: This assay uses monodansylcadaverine (MDC), a fluorescent compound that is incorporated into multilamellar bodies by both an ion trapping mechanism and the interaction with membrane lipids, as a probe for the detection of autophagic vacuoles in cells.
The staining solution was prepared by diluting Cell-Based Monodansylcadaverine 1:1000 in Cell Based Assay Buffer. The assay buffer was prepared by dissolving a Cell-Based Assay Buffer Tablet in 100 ml of distilled water. The plate was then incubated at 37 °C for 10 min and centrifuged for 5 min at 1200 rpm. Next, the supernatant was removed, 100 µl of Cell-Based Assay Buffer was added to each well and the plate was again centrifuged in the same conditions. […] Considering that the autophagy level in mock-treated control fibroblasts is 100%, the level of autophagy relative to mock-treated control fibroblasts for each condition was determined (see Figure 5).
Cell-Based Tamoxifen (100 mM), a known inducer of autophagy, was used as a positive control. This compound was initially added to a control culture diluted 1:50.000 into the culture media. Cell Based Assay Buffer was used as a negative blank control.

HGPS fibroblasts [5] = test: Western blot analysis of progerin and lamin A/C levels in HGPS fibroblasts; assay type: cell-based, human; details: HGPS cells
Description: Primary dermal fibroblasts from subjects with HGPS were obtained from the Progeria Research Foundation. Two different fibroblasts derived from HGPS patients carrying the LMNA mutation G608G were used: HGADFN003 (person) and HGADFN127 (person). Control dermal fibroblasts were obtained from the Coriell Institute for Medical Research (Camden, NJ). The following cell lines were used: GMO1651C and GMO3349C. All cells were maintained at -80 °C in 90% fetal bovine serum (FBS) and 10% dimethyl sulfoxide (DMSO). The Institutional Review Board of the Technische Universität München (TUM) approved the use of human cells established from skin biopsies from patients with HGPS and unaffected individuals in this study.
Control and HGPS fibroblasts were cultured at 37 °C and 5% CO2 in Dulbecco's Modified Eagle Media (DMEM) (Gibco by life technologies) containing 15% FBS (Gibco by life technologies), 1% L-glutamine (Gibco by life technologies), 1% penicillin/streptomycin (Gibco by life technologies), and 2 ml of gentamycin (Gibco by life technologies). Mock-treated and baricitinib-treated fibroblasts were cultured in parallel. […] Three times a week the cells were re-fed with new culture media.
(§1) A similar quantitative Western Blot analysis was carried out in wild-type mouse fibroblasts compared to fibroblasts obtained from the progerin mouse model (see Figure 17).
Subsequently, the cell suspension was centrifuged for 5 min at 1200 rpm, the supernatant was aspirated, and the cells were washed with 4.5 ml PBS (Sigma). These steps were performed thrice in order to assure that all culture media is removed. Then, the cells were transferred to Eppendorf tubes with 1 ml PBS (Sigma) and the tubes were centrifuged for 5 min at 1200 rpm. […]
(§2) The total protein concentration of each gel electrophoresis loading sample was determined by using a series of dilutions of known concentrations of bovine serum albumin (BSA) to obtain a standard curve. […] The total protein concentration of each gel electrophoresis loading sample was calculated based on this standard curve. […]

[6] = tested on: mouse fibroblasts from a progerin mouse model; test: Western blot analysis of progerin levels in mouse fibroblasts from progerin mouse model; assay type: cell-based; details: mouse progerin fibroblasts (LMNA G609G/G609G), 3 µM
Description: as §1
Subsequently, the cell suspension was centrifuged for 5 min at 1200 rpm, the supernatant was aspirated, and the cells were washed with 4.5 ml PBS (Sigma). These steps were performed thrice in order to assure that all culture media is removed. Then, the cells were transferred to Eppendorf tubes with 1 ml PBS (Sigma) and the tubes were centrifuged for 5 min at 1200 rpm. After fully aspirating PBS, the cell pellets were obtained. Following the generation of cell pellets, the next action was the preparation of the gel electrophoresis loading samples. The first step was the addition of 100 µl per 10^7 cells of Laemmli Buffer-inhibitor mix to each Eppendorf tube to lyse the fibroblasts and denature the proteins of the lysate. […]
as §2

HGPS fibroblasts [7] = test: 20S proteasome activity measurement in HGPS fibroblasts; assay type: cell-based, human; details: 0.25-1 µM, 4 or 9 days
Description: This assay uses a specific 20S substrate (SUC-LLVY-AMC) which, upon cleavage by the active enzyme, generates a fluorescent product that can be detected.
Next, the plate was again centrifuged in the same conditions, the supernatant was aspirated, and 100 µl of 20S Proteasome Lysis Buffer was added to each well. Then, the plate was incubated with gentle shaking for 30 min at room temperature to allow cell lysis and it was centrifuged at 1300 rpm for 7 min. Following centrifugation, 90 µl of the supernatant from each well was transferred to a new empty well together with 10 µl of substrate solution. The substrate solution was prepared by adding 25 µl of 20S Proteasome Substrate (SUC-LLVY-AMC) to 1 ml of 20S Proteasome Assay Buffer. […] Considering that the proteasomal activity in mock-treated control fibroblasts is 100%, the proteasomal activity relative to mock-treated control fibroblasts was calculated for each condition.
A Jurkat cell lysate supernatant which contains a high level of 20S activity was used as positive control (20S Proteasome Positive Control) and 20S Proteasome Assay Buffer was used as negative blank control.

HGPS fibroblasts [8] = test: Intracellular ROS measurement in HGPS fibroblasts; assay type: cell-based, human; details: 0.25-1 µM, 4 or 9 days
Description: This assay uses 2',7'-dichlorofluorescein diacetate (DCFDA), a cell permeant reagent that after entering the cell is deacetylated by cellular esterases to a non-fluorescent compound that is later oxidized by ROS into 2',7'-dichlorofluorescein (DCF). DCF is highly fluorescent and can be detected by fluorescence spectroscopy.
First, control and HGPS fibroblasts were harvested in the above mentioned conditions and, following trypsinization, the number of cells was counted with a CASY® Cell Counter (Roche). The fibroblasts from each condition were seeded in triplicate in a 96 well plate with 32.000 cells/well in 100 µl of culture media with the appropriate drug concentration, and the plate was incubated at 37 °C for 8 h. After the incubation, the culture media was aspirated, 100 µl of 1 x Buffer were added to each well, and the plate was centrifuged at 1200 rpm for 5 min. […] Following the addition of 1x Buffer, fluorescence was measured immediately in a FLUOstar Omega Microplate Reader (Omega BMG Labtech) using an excitation wavelength of 485 nm and an emission wavelength of 535 nm. Considering that the ROS level in mock-treated control fibroblasts is 100%, the ROS levels relative to mock-treated control fibroblasts were calculated for each condition. […]

CCS(=O)(=O)N1CC(CC#N)(n2cc(-c3ncnc4[nH]ccc34)cn2)C1 [baricitinib]
levels of autophagy ([1]; both control and progerin mouse fibroblasts): increases | levels of autophagy increased ([1]; progerin mouse fibroblast relative to mock-treated control cells): 39.9% | cell growth [2]: ameliorate cell growth | ATP levels (HGPS fibroblasts [3]): increase | autophagy activity (HGPS fibroblasts [4]): increase | reduction of levels of progerin (HGPS fibroblasts [5]; 4 days treatment with 1 µM, anti-progerin and anti-lamin A/C antibodies): 15% | progerin levels decreased (HGPS fibroblasts [5]; 9 days treatment with 1 µM): 33% | lamin A and lamin C levels (HGPS fibroblasts [5]; long-term treatment): remained constant | levels of progerin decrease ([6]; day 4): 18% | levels of progerin decrease ([6]; day 9): 35% and 35.6% | proteasome activity (HGPS fibroblasts [7]): increase | ROS levels (HGPS fibroblasts [8]): decrease
